Test results published in PubChem BioAssay (NCI).
Several values for one entry are separate records, joined by “and”; a condition that tells them apart may be missing. Equal entries are not always repeated.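 1) Cells in 96-well plates. 2) Compound, 48 h, 5 concentrations. 3) Linear interpolation between surrounding doses. 4) Unreached endpoint = highest concentration. At the GI50, growth is halved. TGI: total growth inhibition.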

What was measured:
Assay in all cases: DTP human tumour cell line panel, 48 h
CCRF-CEM leukemia = test system: CCRF-CEM leukemia
PC-3 prostate = test system: PC-3 prostate
ACHN renal = test system: ACHN renal
OVCAR-3 ovarian = test system: OVCAR-3 ovarian
HOP-62 NSCLC = test system: HOP-62 NSCLC
HCT-116 colon = test system: HCT-116 colon
NCI-H460 lung = test system: NCI-H460 lung
SK-OV-3 ovarian = test system: SK-OV-3 ovarian
SF-295 CNS = test system: SF-295 CNS
OVCAR-5 ovarian = test system: OVCAR-5 ovarian

SMILES	GI50 (CCRF-CEM leukemia) [µM]	TGI (CCRF-CEM leukemia)	GI50 (PC-3 prostate) [µM]	TGI (PC-3 prostate) [µM]	GI50 (ACHN renal) [µM]	TGI (ACHN renal)	GI50 (OVCAR-3 ovarian) [µM]	TGI (OVCAR-3 ovarian) [µM]	GI50 (HOP-62 NSCLC) [µM]	TGI (HOP-62 NSCLC)	GI50 (HCT-116 colon) [µM]	TGI (HCT-116 colon)	GI50 (NCI-H460 lung) [µM]	TGI (NCI-H460 lung)	GI50 (SK-OV-3 ovarian) [µM]	TGI (SK-OV-3 ovarian) [µM]	GI50 (SF-295 CNS) [µM]	TGI (SF-295 CNS)	GI50 (OVCAR-5 ovarian) [µM]	TGI (OVCAR-5 ovarian) [µM]
OC1(c2ccc(Cl)c(C(F)(F)F)c2)CCN(CCCC(c2ccc(F)cc2)c2ccc(F)cc2)CC1	1.04	2.63 µM	0.857	2.1	0.87	1.63 µM	0.888	1.63	0.945	1.7 µM	0.734	1.41 µM	1.23	9.05 µM	1.31	3.17	0.833	1.63 µM	0.868	1.77
CCN(CC)Cc1cc(Nc2nc(NC3CCC(N(C)C)CC3)c3ccccc3n2)ccc1OC (configuration not stated)	2.5	16.8 µM	6.97	24.3	11	24.8 µM	11.6	24.7	8.63	20.9 µM	3.37	12.8 µM	5.18	17.6 µM	–	–	2.33	7.01 µM	5	20.7
CNC(=O)c1ncccc1Nc1nc(Nc2cc3c(cc2OC)CCCN3C(=O)CN(C)C)nc2[nH]ccc12	0.568	2.96 µM	1.5	8.03	3.23	6.72 µM	0.986	3.39	1.17	4.73 µM	1.11	4.89 µM	0.613	3.77 µM	1.67	5.86	1.82	5.94 µM	0.325	4.18
COC1N(C2CC(O)C(CO)O2)C(=O)NC(=O)C1(F)Br (configuration not stated)	27.6	50 µM and > 75.4 µM	–	> 100	23.9	50 µM and > 100 µM	> 50	> 100	8.35	50 µM and > 66.5 µM	12.6	50 µM and > 100 µM	1.51	50 µM and > 100 µM	99.4	> 100	21.9	50 µM and > 100 µM	> 50	> 100
CSC1=Nc2c(c(C)c(C)n2COC(CO)CO)C2=NC(=O)CN12	> 100	> 100 µM	> 100	> 100	> 100	> 100 µM	> 100	> 100	> 100	> 100 µM	> 100	> 100 µM	> 100	> 100 µM	> 100	> 100	> 100	> 100 µM	> 100	> 100
CC1(C)OC[C@@H]([C@@]2(CO[Si](c3ccccc3)(c3ccccc3)C(C)(C)C)CC=CC(=O)O2)O1	6.63	> 100 µM	5.92	> 100	11.4	36.6 µM	4.3	> 100	31.5	60.9 µM	4.86	> 100 µM	5.16	> 100 µM	33	> 100	5.43	25.9 µM	16.7	49.6
